Assay results reported in patent US8242174B2 (priority 2007, dated 2012).
Where a name gives a salt, the structure may show the parent alone.

target: Lethal factor protease (Bacillus anthracis, UniProt P15917); assay: biochemical
Sequence (P15917 34-809 limits assumed): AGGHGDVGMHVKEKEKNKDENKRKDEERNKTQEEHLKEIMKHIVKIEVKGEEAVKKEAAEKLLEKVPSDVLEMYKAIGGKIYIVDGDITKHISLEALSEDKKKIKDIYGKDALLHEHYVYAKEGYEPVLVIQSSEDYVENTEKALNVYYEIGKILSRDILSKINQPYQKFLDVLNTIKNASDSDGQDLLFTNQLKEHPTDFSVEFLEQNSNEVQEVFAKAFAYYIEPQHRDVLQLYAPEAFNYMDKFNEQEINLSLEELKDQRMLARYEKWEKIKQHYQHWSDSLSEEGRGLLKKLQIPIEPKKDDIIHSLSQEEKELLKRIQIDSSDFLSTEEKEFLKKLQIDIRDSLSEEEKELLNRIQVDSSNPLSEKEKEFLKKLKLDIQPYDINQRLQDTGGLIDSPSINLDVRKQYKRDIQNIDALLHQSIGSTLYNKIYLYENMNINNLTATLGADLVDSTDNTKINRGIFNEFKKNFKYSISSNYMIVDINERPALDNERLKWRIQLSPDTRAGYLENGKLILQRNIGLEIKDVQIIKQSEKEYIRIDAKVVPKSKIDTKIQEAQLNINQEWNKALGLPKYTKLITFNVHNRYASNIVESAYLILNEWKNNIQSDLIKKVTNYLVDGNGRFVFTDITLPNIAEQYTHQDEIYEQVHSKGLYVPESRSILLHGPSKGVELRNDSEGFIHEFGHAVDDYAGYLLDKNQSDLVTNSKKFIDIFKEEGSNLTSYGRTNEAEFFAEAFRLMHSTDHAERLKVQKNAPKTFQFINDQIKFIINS

SMILES	Ki
Cc1cc(N[C@H](CCc2ccccc2)C(=O)NO)cc(C)c1F [Compound 167406, (R)-2-(4-Fluoro-3,5-dimethyl-phenylamino)-N-hydroxy-4-phenyl-butyramide]	510 nM
Cc1cc(N[C@H](CCCCn2c(C)ccc2C)C(=O)NO)cc(C)c1F [Compound 167605, (R)-6-(2,5-Dimethyl-pyrrol-1-yl)-2-(4-fluoro-3,5-dimethyl-phenylamino)-hexanoic acid hydroxyamide]	2000 nM
Cc1cc(N[C@H](CCCCNCc2ccc3c(c2)OCO3)C(=O)NO)ccc1F [Compound 168145, (R)-6-[(Benzo[1,3]dioxol-5-ylmethyl)-amino]-2-(4-fluoro-3-methyl-phenylamino)-hexanoic acid hydroxyamide]	170 nM
CCCCC(Nc1cc(C)cc(Br)c1)C(=O)NO (stereo not shown) [Compound 167844, 2-(3-Bromo-5-methyl-phenylamino)-hexanoic acid hydroxyamide]	3500 nM
Cc1cc(N[C@H](C)C(=O)NO)ccc1F [Compound 167392, (R)-2-(4-Fluoro-3-methyl-phenylamino)-N-hydroxy-propionamide]	960 nM
CCCCC(Nc1cc(C)cc(F)c1)C(=O)NO (stereo not shown) [Compound 167722, 2-(3-Fluoro-5-methyl-phenylamino)-hexanoic acid hydroxyamide]	19000 nM
CCCCC(Nc1ccc(F)c(Cl)c1)C(=O)NO (stereo not shown) [Compound 167322, 2-(3-Chloro-4-fluoro-phenylamino)-hexanoic acid hydroxyamide]	17100 nM
Cc1cc(N[C@H](CCCCNS(=O)(=O)c2ccc(N(C)C)cc2)C(=O)NO)cc(C)c1F [Compound 167699, (R)-6-(4-Dimethylamino-benzenesulfonylamino)-2-(4-fluoro-3,5-dimethyl-phenylamino)-hexanoic acid hydroxyamide]	430 nM
CCCCC(Nc1ccc(F)c(OC)c1)C(=O)NO (stereo not shown) [Compound 167793, 2-(4-Fluoro-3-methoxy-phenylamino)-hexanoic acid hydroxyamide]	157000 nM
Cc1cc(N[C@H](CCCCNC(C)c2ccc(F)cc2)C(=O)NO)ccc1F (stereo partly drawn) [Compound 168010, (R)-2-(4-Fluoro-3-methyl-phenylamino)-6-[1-(4-fluoro-phenyl)-ethylamino]-hexanoic acid hydroxyamide]	70 nM
Cc1cc(CN(CCCC[C@@H](Nc2cc(C)c(F)c(C)c2)C(=O)NO)Cc2ccc(F)c(C)c2)ccc1F [Compound 167933, (R)-6-[Bis-(4-fluoro-3-methyl-benzyl)-amino]-2-(4-fluoro-3,5-dimethyl-phenylamino)-hexanoic acid hydroxyamide]	1900 nM
Cc1cc(N[C@H](CCCCN(Cc2ccc(F)cc2)Cc2ccc(F)cc2)C(=O)NO)cc(C)c1F [Compound 168047, (R)-6-[Bis-(4-fluoro-benzyl)-amino]-2-(4-fluoro-3,5-dimethyl-phenylamino)-hexanoic acid hydroxyamide]	790 nM
Cc1cc(N[C@H](CCCCNS(=O)(=O)c2ccc(F)cc2)C(=O)NO)cc(C)c1F [Compound 167589, (R)-6-(4-Fluoro-benzenesulfonylamino)-2-(4-fluoro-3,5-dimethyl-phenylamino)-hexanoic acid hydroxyamide]	1250 nM
CCCCC(Nc1cccc(OC)c1)C(=O)NO (stereo not shown) [Compound 167276, 2-(3-Methoxy-phenylamino)-hexanoic acid hydroxyamide]	140000 nM
CCCCC(Nc1cc(Cl)cc(Cl)c1)C(=O)NO (stereo not shown) [Compound 167718, 2-(3,5-Dichloro-phenylamino)-hexanoic acid hydroxyamide]	12200 nM
CCC[C@@H](Nc1cc(C)c(F)c(C)c1)C(=O)NO [Compound 167391, (R)-2-(4-Fluoro-3,5-dimethyl-phenylamino)-pentanoic acid hydroxyamide]	500 nM
CCCC[C@H](Nc1cc(C)c(F)c(C)c1)C(=O)NO [Compound 167295, (S)-2-(4-Fluoro-3,5-dimethyl-phenylamino)-hexanoic acid hydroxyamide]	106000 nM
CCCCC(Nc1cc(C)c(OC)c(C)c1)C(=O)NO (stereo not shown) [Compound 167325, 2-(4-Methoxy-3,5-dimethyl-phenylamino)-hexanoic acid hydroxyamide]	30400 nM
CCCC[C@H](Nc1ccc(F)c(C)c1)C(=O)NO [Compound 167274, (S)-2-(4-Fluoro-3-methyl-phenylamino)-hexanoic acid hydroxyamide]	116000 nM
Cc1cc(N[C@H](CCCCNC(=O)C(c2ccccc2)c2ccccc2)C(=O)NO)cc(C)c1F [Compound 167610, (R)-6-Diphenylacetylamino-2-(4-fluoro-3,5-dimethyl-phenylamino)-hexanoic acid hydroxyamide]	1340 nM
Cc1cc(N[C@@H](C)C(=O)NO)ccc1F [Compound 167364, (S)-2-(4-Fluoro-3-methyl-phenylamino)-N-hydroxy-propionamide]	87000 nM
CCCC[C@@H](Nc1cc(C)c(F)c(C)c1)C(=O)NO [Compound 167294, (R)-2-(4-Fluoro-3,5-dimethyl-phenylamino)-hexanoic acid hydroxyamide]	520 nM

SMILES	Ki
Cc1cc(N[C@H](CCCCNC(=O)OC(C)(C)C)C(=O)NO)cc(C)c1F [Compound 167561, (R)-[5-(4-Fluoro-3,5-dimethyl-phenylamino)-5-hydroxycarbamoyl-pentyl]-carbamic acid tert-butyl ester]	710 nM
Cc1cc(NC(=O)NCCCC[C@@H](Nc2cc(C)c(F)c(C)c2)C(=O)NO)ccc1F [Compound 167614, (R)-2-(4-Fluoro-3,5-dimethyl-phenylamino)-6-[3-(4-fluoro-3-methyl-phenyl)-ureido]-hexanoic acid hydroxyamide]	280 nM
Cc1cc(S(=O)(=O)NCCCC[C@@H](Nc2cc(C)c(F)c(C)c2)C(=O)NO)ccc1F [Compound 167590, (R)-2-(4-Fluoro-3,5-dimethyl-phenylamino)-6-(4-fluoro-3-methyl-benzenesulfonylamino)-hexanoic acid hydroxyamide]	250 nM
CCCCC(Nc1ccc(OC)c(C)c1)C(=O)NO (stereo not shown) [Compound 167324, 2-(4-Methoxy-3-methyl-phenylamino)-hexanoic acid hydroxyamide]	19300 nM
Cc1cc(N[C@@H](C(=O)NO)C(C)C)ccc1F [Compound 167267, (R)-2-(4-Fluoro-3-methyl-phenylamino)-N-hydroxy-3-methyl-butyramide hydrochloride]	15700 nM
CCCCC(Nc1ccc(F)c(C#N)c1)C(=O)NO (stereo not shown) [Compound 167720, 2-(3-Cyano-4-fluoro-phenylamino)-hexanoic acid hydroxyamide]	11800 nM
CCCCC(Nc1cc(C)c(F)c(C)c1)C(=O)NO (stereo not shown) [Compound 167454, 2-(4-Fluoro-3,5-dimethyl-phenylamino)-hexanoic acid hydroxyamide]	800 nM
Cc1cc(N[C@H](CCCCNC(=O)Cc2ccc(-n3c(C)ccc3C)cc2)C(=O)NO)cc(C)c1F [Compound 167592, (R)-6-{2-[4-(2,5-Dimethyl-pyrrol-1-yl)-phenyl]-acetylamino}-2-(4-fluoro-3,5-dimethyl-phenylamino)-hexanoic acid hydroxyamide]	1440 nM
Cc1cc(N[C@H](CC(C)C)C(=O)NO)cc(C)c1F [Compound 167402, (R)-2-(4-Fluoro-3,5-dimethyl-phenylamino)-4-methyl-pentanoic acid hydroxyamide]	670 nM
CCCCC(Nc1ccc(C)c(F)c1C)C(=O)NO (stereo not shown) [Compound 167455, 2-(3-Fluoro-2,4-dimethyl-phenylamino)-hexanoic acid hydroxyamide]	88100 nM
Cc1cc(C(=O)NCCCC[C@@H](Nc2cc(C)c(F)c(C)c2)C(=O)NO)ccc1F [Compound 167551, (R)-4-Fluoro-N-[5-(4-fluoro-3,5-dimethyl-phenylamino)-5-hydroxycarbamoyl-pentyl]-3-methyl-benzamide]	390 nM
Cc1cc(N[C@H](CCCCNS(=O)(=O)c2ccc(N)cc2)C(=O)NO)cc(C)c1F [Compound 167656, (R)-6-(4-Amino-benzenesulfonylamino)-2-(4-fluoro-3,5-dimethyl-phenylamino)-hexanoic acid hydroxyamide]	610 nM
CCCCC(Nc1ccc(F)c(C)c1)C(=O)NO (stereo not shown) [Compound 167162, 2-(4-Fluoro-3-methyl-phenylamino)-hexanoic acid hydroxyamide]	2000 nM
CCCCC(Nc1cccc(-c2ccccc2)c1)C(=O)NO (stereo not shown) [Compound 167202, 2-(Biphenyl-3-ylamino)-hexanoic acid hydroxyamide]	236000 nM
Cc1cc(CNCCCC[C@@H](Nc2cc(C)c(F)c(C)c2)C(=O)NO)cc(C)c1F [Compound 167759, 6-(4-Fluoro-3,5-dimethyl-benzylamino)-2-(4-fluoro-3,5-dimethyl-phenylamino)-hexanoic acid hydroxyamide]	70 nM
Cc1cccc(CNCCCC[C@@H](Nc2cc(C)c(F)c(C)c2)C(=O)NO)c1 [Compound 167698, (R)-2-(4-Fluoro-3,5-dimethyl-phenylamino)-6-(3-methyl-benzylamino)-hexanoic acid hydroxyamide]	160 nM
Cc1cc(N[C@H](CCCCNS(=O)(=O)c2cccc(N(C)C)c2)C(=O)NO)cc(C)c1F [Compound 167700, (R)-6-(3-Dimethylamino-benzenesulfonylamino)-2-(4-fluoro-3,5-dimethyl-phenylamino)-hexanoic acid hydroxyamide]	880 nM
CCCC[C@@H](Nc1ccc(F)c(C)c1)C(=O)NO [Compound 167273, (R)-2-(4-Fluoro-3-methyl-phenylamino)-hexanoic acid hydroxyamide]	710 nM
Cc1cc(N[C@H](COC(C)(C)C)C(=O)NO)cc(C)c1F [Compound 167484, (R)-3-tert-Butoxy-2-(4-fluoro-3,5-dimethyl-phenylamino)-N-hydroxy-propionamide]	450 nM
Cc1cc(N[C@H](CCCCN(Cc2ccccc2)Cc2ccccc2)C(=O)NO)ccc1F [Compound 167982, (R)-6-Dibenzylamino-2-(4-fluoro-3-methyl-phenylamino)-hexanoic acid hydroxyamide]	1800 nM
CCCCC(Nc1ccc(Cl)cc1)C(=O)NO (stereo not shown) [Compound 167256, 2-(4-Chloro-phenylamino)-hexanoic acid hydroxyamide]	187000 nM
